Measurements reported in ChEMBL document CHEMBL4665629, “An optimised series of substituted N-phenylpyrrolamides as DNA gyrase B inhibitors” (Eur J Med Chem, 2019).
Values after ≈ are worked out from the molar mass of the structure shown.

Experiments:
[1] = system: Staphylococcus aureus; experiment: Antibacterial activity against methicillin-resistant and vancomycin-intermediate Staphylococcus aureus ATCC 700699 assessed as minimum inhibitory concentration required for >=90% inhibition of bacterial growth by CLSI protocol based broth microdilution assay; format: functional
[2] = system: Klebsiella pneumoniae; experiment: Antibacterial activity against Klebsiella pneumoniae ATCC 10031 assessed as minimum inhibitory concentration required for >=90% inhibition of bacterial growth in presence of phenylalanine-arginine beta-naphthylamide by CLSI protocol based broth microdilution assay; format: functional
[3] = target: Topoisomerase IV (Staphylococcus aureus) (UniProt P0C1U9+P0C1S7); experiment: Inhibition of Staphylococcus aureus DNA topoisomerase 4 assessed as residual activity at 1 uM using biotinylated oligonucleotide as substrate incubated for 30 mins in presence of ATP by fluorescence-based microplate reader assay relative to control; format: protein-complex assay
[4] = system: Pseudomonas aeruginosa; experiment: Antibacterial activity against Pseudomonas aeruginosa ATCC 27853 assessed as bacterial growth inhibition at 50 uM incubated for 24 hrs by CLSI protocol based broth microdilution assay relative to control; format: functional
[5] = system: Shigella flexneri; experiment: Antibacterial activity against Shigella flexneri HNCMB 20018 assessed as minimum inhibitory concentration required for >=90% inhibition of bacterial growth in presence of phenylalanine-arginine beta-naphthylamide by CLSI protocol based broth microdilution assay; format: functional
[6] = system: Enterococcus faecium; experiment: Antibacterial activity against vancomycin-resistant Enterococcus faecium ATCC 700221 assessed as minimum inhibitory concentration required for >=90% inhibition of bacterial growth by CLSI protocol based broth microdilution assay; format: functional
[7] = system: Escherichia coli; experiment: Antibacterial activity against Escherichia coli MG1655 harboring GyrB R136C mutant assessed as minimum inhibitory concentration required for >=90% inhibition of bacterial growth in presence of 50 ug/ml phenylalanine-arginine beta-naphthylamide; format: functional
[8] = system: Escherichia coli; experiment: Antibacterial activity against Escherichia coli ATCC 25922 assessed as minimum inhibitory concentration required for >=90% inhibition of bacterial growth in presence of phenylalanine-arginine beta-naphthylamide by CLSI protocol based broth microdilution assay; format: functional
[9] = system: Streptococcus pyogenes; experiment: Antibacterial activity against Streptococcus pyogenes ATCC 19653 assessed as minimum inhibitory concentration required for >=90% inhibition of bacterial growth by CLSI protocol based broth microdilution assay; format: functional
[10] = system: Staphylococcus aureus; experiment: Antibacterial activity against methicillin-resistant Staphylococcus aureus ATCC 43300 assessed as minimum inhibitory concentration required for >=90% inhibition of bacterial growth in presence of 50% inactivated human serum by CLSI protocol based broth microdilution assay; format: functional
[11] = system: Escherichia coli; experiment: Antibacterial activity against Escherichia coli MG1655 assessed as minimum inhibitory concentration required for >=90% inhibition of bacterial growth in presence of phenylalanine-arginine beta-naphthylamide by CLSI protocol based broth microdilution assay; format: functional
[12] = system: Klebsiella aerogenes; experiment: Antibacterial activity against Enterobacter aerogenes ATCC 13408 assessed as bacterial growth inhibition at 50 uM incubated for 24 hrs by CLSI protocol based broth microdilution assay relative to control; format: functional
[13] = system: Salmonella enterica; experiment: Antibacterial activity against Salmonella enterica LT2 assessed as minimum inhibitory concentration required for >=90% inhibition of bacterial growth in presence of phenylalanine-arginine beta-naphthylamide by CLSI protocol based broth microdilution assay; format: functional
[14] = target: DNA gyrase (Escherichia coli, UniProt P0AES4+P0AES6); experiment: Inhibition of Escherichia coli DNA gyrase using biotinylated oligonucleotide as substrate incubated for 30 mins in presence of ATP by fluorescence-based microplate reader assay; format: protein-complex assay
[15] = system: Enterococcus faecalis; experiment: Antibacterial activity against Enterococcus faecalis ATCC 29212 assessed as bacterial growth inhibition at 50 uM incubated for 24 hrs by CLSI protocol based broth microdilution assay relative to control; format: functional
[16] = system: Klebsiella pneumoniae; experiment: Antibacterial activity against wild type Klebsiella pneumoniae ATCC 10031 harboring GyrA S83F/D87G and ParC S80I mutants assessed as minimum inhibitory concentration required for >=90% inhibition of bacterial growth in presence of 10 ug/ml phenylalanine-arginine beta-naphthamide; format: functional
[17] = system: Pseudomonas aeruginosa; experiment: Antibacterial activity against Pseudomonas aeruginosa ATCC 27853 assessed as minimum inhibitory concentration required for >=90% inhibition of bacterial growth in presence of phenylalanine-arginine beta-naphthylamide by CLSI protocol based broth microdilution assay; format: functional
[18] = system: Klebsiella pneumoniae; experiment: Antibacterial activity against wild type Klebsiella pneumoniae ATCC 10031 harboring GyrA S83F/D87G and ParC S80I/E84G mutants assessed as minimum inhibitory concentration required for >=90% inhibition of bacterial growth in presence of 10 ug/ml phenylalanine-arginine beta-naphthamide; format: functional
[19] = system: Klebsiella pneumoniae; experiment: Antibacterial activity against wild type Klebsiella pneumoniae ATCC 10031 harboring GyrA S83F/D87G mutant assessed as minimum inhibitory concentration required for >=90% inhibition of bacterial growth in presence of 10 ug/ml phenylalanine-arginine beta-naphthamide; format: functional
[20] = Inhibition of Escherichia coli DNA topoisomerase 4 assessed as residual activity at 1 uM using biotinylated oligonucleotide as substrate incubated for 30 mins in presence of ATP by fluorescence-based microplate reader assay relative to control
[21] = system: Escherichia coli; experiment: Antibacterial activity against efflux pump d effect ive Escherichia coli JW5503 harbouring tolC mutant assessed as bacterial growth inhibition at 50 uM incubated for 24 hrs by CLSI protocol based broth microdilution assay relative to control; format: functional
[22] = system: Enterococcus faecalis; experiment: Antibacterial activity against Enterococcus faecalis ATCC 29212 assessed as minimum inhibitory concentration required for >=90% inhibition of bacterial growth by CLSI protocol based broth microdilution assay; format: functional
[23] = system: Enterococcus faecium; experiment: Antibacterial activity against Enterococcus faecium ATCC 35667 assessed as minimum inhibitory concentration required for >=90% inhibition of bacterial growth by CLSI protocol based broth microdilution assay; format: functional
[24] = system: Enterococcus faecium; experiment: Antibacterial activity against Enterococcus faecium ATCC 35667 assessed as bacterial growth inhibition at 50 uM incubated for 24 hrs by CLSI protocol based broth microdilution assay relative to control; format: functional
[25] = system: Escherichia coli; experiment: Antibacterial activity against Escherichia coli ATCC 25922 assessed as bacterial growth inhibition at 50 uM incubated for 24 hrs by CLSI protocol based broth microdilution assay relative to control; format: functional
[26] = system: Escherichia coli; experiment: Antibacterial activity against outer membrane impaired Escherichia coli JD17464 harboring lpxC mutant assessed as bacterial growth inhibition at 50 uM incubated for 24 hrs by CLSI protocol based broth microdilution assay relative to control; format: functional
[27] = system: Escherichia coli; experiment: Antibacterial activity against Escherichia coli MG1655 harboring […]/D87N and ParC S80I/E84G mutants assessed as minimum inhibitory concentration required for >=90% inhibition of bacterial growth in presence of 50 ug/ml phenylalanine-arginine beta-naphthylamide; format: functional
[28] = system: Escherichia coli; experiment: Antibacterial activity against Escherichia coli MG1655 harboring […]/D87N and ParC S80I mutants assessed as minimum inhibitory concentration required for >=90% inhibition of bacterial growth in presence of 50 ug/ml phenylalanine-arginine beta-naphthylamide; format: functional
[29] = system: Klebsiella pneumoniae; experiment: Antibacterial activity against wild type Klebsiella pneumoniae ATCC 10031 harboring GyrA S83Y mutant assessed as minimum inhibitory concentration required for >=90% inhibition of bacterial growth in presence of 10 ug/ml phenylalanine-arginine beta-naphthamide; format: functional
[30] = system: Staphylococcus aureus; experiment: Antibacterial activity against methicillin-resistant Staphylococcus aureus ATCC 43300 assessed as minimum inhibitory concentration required for >=90% inhibition of bacterial growth by CLSI protocol based broth microdilution assay; format: functional

Work on `CCn1cc(C(=O)O)c(=O)c2ccc(NC(=O)c3[nH]c(C)c(Cl)c3Cl)cc21` yielded an MIC [1] of 2.5 µM (≈ 1.02 µg/mL), an MIC [2] of over 32 µM and an Activity [3] of 100%. The inhibition at 50 µM [4] was -5%, the MIC [5] was over 32 µM and the MIC [6] was 0.72 µM (≈ 0.294 µg/mL). For the same compound, the MIC [7] was 2.5 µM, the MIC [8] was 2.3 µM and the MIC [9] was 0.72 µM (≈ 0.294 µg/mL). For the same compound, the MIC [10] was 32 µM, the MIC [11] was 2.5 µM and the inhibition at 50 µM [12] was 9%. For the same compound, the MIC [13] was over 32 µM, the IC50 [14] was 1.4 µM and the inhibition at 50 µM [15] was 99%. The MIC [16] was 1.2 µM, the MIC [17] was over 32 µM and the MIC [18] was 1.2 µM. For the same compound, the MIC [19] was 2.5 µM, the Activity [20] was 92% and the inhibition at 50 µM [21] was 54%. For the same compound, the MIC [22] was 1.56 µM (≈ 0.637 µg/mL), the MIC [23] was 1.56 µM (≈ 0.637 µg/mL) and the inhibition at 50 µM [24] was 97%. For the same compound, the inhibition at 50 µM [25] was 11%, the inhibition at 50 µM [26] was 11% and the MIC [27] was 2.5 µM. The MIC [28] was 2.5 µM, the MIC [29] was 1.2 µM and the MIC [30] was 2.5 µM (≈ 1.02 µg/mL).
